Assay results published in PubChem BioAssay (NCI).
Where “and” joins values, the source holds several entries; their conditions need not be identical. Equal values may be shown once.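 Grown in 96-well plates, cells were treated for 48 hours with each compound at five concentrations. Insufficient inhibition: endpoint recorded as highest concentration tested. Here, GI50 denotes the concentration required for 50% inhibition of growth. TGI: concentration producing complete growth inhibition.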 Starred links: 1 amine or outer side, 2 acyl side, 3 side chain; linkers in the order of their positions; H or OH if unused. Positions of bridges follow the written chain, without caps; N, C: chain ends. Non-standard residues stand in square brackets, D forms with d. Residues, ends and D or L forms follow the SMILES beside them. Chains are numbered I, II in the order given. Actinocin(1to9) = Cc1c2oc3c(C)ccc(C(=O)[*:2])c3nc-2c(C(=O)[*:1])c(N)c1=O; NMeV = CN[CH](C(=O)O)C(C)C; Sar = CNCC(=O)O

Assays:
Assay in all cases: growth of human tumour cells (NCI), 48 h
SNB-19 CNS = tested on: SNB-19 CNS
HCT-15 colon = tested on: HCT-15 colon
OVCAR-8 ovarian = tested on: OVCAR-8 ovarian
HOP-92 NSCLC = tested on: HOP-92 NSCLC
M14 melanoma = tested on: M14 melanoma
SK-MEL-5 melanoma = tested on: SK-MEL-5 melanoma
MOLT-4 leukemia = tested on: MOLT-4 leukemia
MDA-MB-435 = tested on: MDA-MB-435
CCRF-CEM leukemia = tested on: CCRF-CEM leukemia
TK-10 renal = tested on: TK-10 renal
HL-60(TB) leukemia = tested on: HL-60(TB) leukemia
ACHN renal = tested on: ACHN renal
HCT-116 colon = tested on: HCT-116 colon
EKVX NSCLC = tested on: EKVX NSCLC

| Structure (SMILES) | TGI (SNB-19 CNS) [µM] | TGI (HCT-15 colon) [µM] | TGI (OVCAR-8 ovarian) [µM] | TGI (HOP-92 NSCLC) [µM] | TGI (M14 melanoma) [µM] | TGI (SK-MEL-5 melanoma) [µM] | TGI (MOLT-4 leukemia) [µM] | TGI (MDA-MB-435) [µM] | TGI (CCRF-CEM leukemia) [µM] | TGI (TK-10 renal) [µM] | TGI (HL-60(TB) leukemia) [µM] | TGI (ACHN renal) [µM] | TGI (HCT-116 colon) [µM] | TGI (EKVX NSCLC) | GI50 (HCT-15 colon) [µM] |
| --- | --- | --- | --- | --- | --- | --- | --- | --- | --- | --- | --- | --- | --- | --- | --- |
| CC(=O)OC1CC[C@@]2(C)C(=CC[C@@H]3[C@@H]2CC[C@]2(C)Nc4nn(S(C)(=O)=O)cc4C[C@@H]32)C1 (stereo partly drawn) | > 100 | 89.4 | > 100 | > 100 | 36.3 | 28.4 | 53.9 | 50.1 | 38.5 |  |  |  |  |  |  |
| O=C(O[C@@H](/C=C/c1ccccc1)P1(=O)N(Cc2ccccc2)[C@H]2CCCC[C@@H]2N1Cc1ccccc1)c1ccccc1 | > 100 | > 100 | > 100 | 45.2 | > 100 | 3.67 |  | > 100 | 17.9 | 37 | 7.66 | 6.91 | > 100 | > 100 µM |  |
| CC(ON(C(c1ccccc1)C(C)C)C(C)(C)C)c1ccccc1 (stereo not drawn) | 35.9 | > 100 | 51.7 | 40.3 | 49.2 | 29.7 | 35.9 | 68.9 | 39.3 | 46.2 | 36.7 | 29.3 | 33.9 | 29 µM |  |
| CCC(C)C1NC(=O)C(NC(=O)c2c3nc4c(C(=O)NC5C(=O)NC(C(C)CC)C(=O)N6CCCC6C(=O)N(C)CC(=O)N(C)C(C(C)C)C(=O)OC5C)ccc(C)c4oc-3c(C)c(=O)c2N)C(C)OC(=O)C(C(C)C)N(C)C(=O)CN(C)C(=O)C2CCCN2C1=O (stereo not drawn) (I: TIP[Sar][NMeV] / II: TIP[Sar][NMeV]; ester I:1-I:C, II:1-II:C; linker I:N-II:N via Actinocin(1to9); configuration not given here) | 0.0111 | 10.3 | 0.125 | 0.085 | 0.0272 | 0.018 | 0.0144 | 0.0169 | 0.0106 | 0.0755 | 0.0186 |  |  | 0.248 µM and 0.0692 µM | 0.0109 |
| COc1cc2oc(=O)ccc2cc1C(=O)CC(C)C | > 100 | > 100 | > 100 | > 100 | > 100 | > 100 | > 100 | > 100 | > 100 | > 100 | > 100 | > 100 | > 100 | > 100 µM |  |
| N#CC12Cc3cc4c(cc3-c3cccc(c31)CCN2C(=O)c1ccccc1)OCO4 (stereo not drawn) | > 100 |  | > 100 | 89.5 | > 100 | > 100 | > 100 |  | > 100 | > 100 | > 100 | > 100 | > 100 | > 100 µM |  |
| O=c1c2cc(I)ccc2nc(SCc2nncs2)n1Cc1ccccc1 | > 100 | > 100 | > 100 | 35.1 | > 100 | 88.3 | > 100 | > 100 | 70.8 | > 100 | > 100 | > 100 | > 100 | 48.6 µM |  |
| Cc1coc2c1C[C@@]1(C)[C@H](CCC[C@@H]1C)[C@H]2O | > 100 | > 100 | > 100 | 66.2 | > 100 | 28.9 | 59.7 | 92.1 | > 100 | > 100 | 44.6 | 78.3 | > 100 | > 100 µM |  |
